Source: patent US9988403B2, “Compositions and methods for treating cancer with aberrant lipogenic signaling” (Thomas Jefferson University, priority 2012, dated 2018)

System: Drosophila
Assay: Drosophila development, viability and life span on compound food
Format: in vivo

For `CC1(C)OB(c2ccc(/C=C/c3ccc(O)cc3)cc2)OC1(C)C` [BF102], the “Drosophila development and viability” value (200 μM in food) was “do not affect” and the “life span of adult flies” value (adult flies fed food mixed with compound, data not shown) was “do not have any obvious effect”.
